For four compounds, IC50 results are on record in US8101603B2, “Tyrosine kinase inhibitors” (Merck Sharp & Dohme Corp., priority 2006, dated 2012).

This assay deals with T1, human c-Met (Homo sapiens, UniProt P08581).
T1 construct: Recombinant GST-tagged cytosolic domains of human c-Met; 6xHis; made in house; host or cells: Sf9 or Sf21 insect cells (baculovirus, Pharmingen pGcGHLT vector)
Put plainly: In vitro c-Met kinase assay (homogeneous time-resolved fluorescence). The class given is biochemical. Particulars: recombinant GST-tagged c-Met cytosolic domain, 50 μM MgATP, HTRF. The source says: Recombinant GST-tagged cytosolic domains of human c-Met and other receptor tyrosine kinases including mouse c-Met, human Ron, KDR, IGFR, EGFR, FGFR, Mer, TrkA and Tie2 are used to determine whether the compounds of the instant invention modulate the enzymatic activities of these kinases.
Soluble recombinant GST-tagged cytosolic domains of c-Met and other receptor tyrosine kinases are expressed in a baculovirus system (Pharmingen) according to a protocol recommended by the manufacturer. The c-DNA encoding each cytosolic domain is subcloned into a baculovirus expression vector (pGcGHLT-A, B or C, Pharmingen) containing an in frame 6× histidine tag and a GST tag. The resulting plasmid construct and BaculoGold baculovirus DNA (Pharmingen) are used to co-transfect Sf9 or Sf21 insect cells. After confirming expression of GST-tagged kinase fusion, a high titer recombinant baculovirus stock is produced, expression conditions are optimized, and a scaled up expression of rat KDR-GST fusion is performed. The fusion kinase is then purified from the insect cell lysate by affinity chromatography using glutathione agarose (Pharmingen). The purified protein is dialyzed against 50% glycerol, 2 mM DTT, 50 mM Tris-HCl (pH 7.4) and stored at −20° C. The protein concentrations of the fusion proteins are determined using Coomassie Plus Protein Assay (Pierce) with BSA as standard.
The procedure for determining the potency of a compound to inhibit c-Met kinase comprises the following steps: • 1. Prepare 3-fold serial diluted compound solutions in 100% dimethyl sulfoxide (DMSO) at 20× of the desired final concentrations in a 96 well plate. • 2. […] In a black assay plate, add 2.5 μl of compound solution (or DMSO) and 37.5 μl of master reaction mix per well. Initiate the kinase reaction by adding 10 μl of 0.25 mM MgATP per well. Allow the reactions to proceed for 80 min at room temperature. The final conditions for the reaction are 0.2 nM c-Met, 0.5 μM substrate, 50 μM MgATP, 5 mM MgCl2, 100 mM NaCl, 2 mM DTT, 0.1 mg/ml BSA, 50 mM Tris (pH 7.4) and 5% DMSO. • 4. […] Read HTRF signals on a Victor reader (PerkinElmer) in HTRF mode after 60 min. • 6.

Some results are limits rather than exact numbers.

T1 sequence (P08581 956-1390 limits assumed): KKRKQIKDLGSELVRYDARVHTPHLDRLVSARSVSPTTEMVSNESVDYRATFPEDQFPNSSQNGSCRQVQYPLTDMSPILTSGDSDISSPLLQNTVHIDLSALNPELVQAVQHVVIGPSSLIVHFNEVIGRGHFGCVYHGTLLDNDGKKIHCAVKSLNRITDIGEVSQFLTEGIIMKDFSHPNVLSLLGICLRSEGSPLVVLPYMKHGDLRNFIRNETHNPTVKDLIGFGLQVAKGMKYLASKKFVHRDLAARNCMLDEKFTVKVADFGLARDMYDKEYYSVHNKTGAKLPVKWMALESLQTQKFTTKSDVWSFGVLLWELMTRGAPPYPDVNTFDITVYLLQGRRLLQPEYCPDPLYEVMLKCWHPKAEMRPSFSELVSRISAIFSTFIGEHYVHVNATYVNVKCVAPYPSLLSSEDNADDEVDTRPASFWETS

Regarding `CN(C)S(=O)(=O)C(F)(F)c1ccc2ccc3ncc(-c4cnn(C)c4)cc3c(=O)c2c1` [Compound 4-1, 1,1-Difluoro-N,N-dimethyl-1-[3-(1-methyl-1H-pyrazol-4-yl)-5-oxo-5H-benzo[4,5]cyclohepta[1,2-b]pyridin-7-yl]methanesulfonamide], the IC50 was at most 50 µM.
The figure for `CN(C)S(=O)(=O)C(F)c1ccc2ccc3ncc(-c4cnn(C)c4)cc3c(=O)c2c1` (stereo not shown) [Compound 4-2, 1-Fluoro-N,N-dimethyl-1-[3-(1-methyl-1H-pyrazol-4-yl)-5-oxo-5H-benzo[4,5]cyclohepta[1,2-b]pyridin-7-yl]methanesulfonamide] is at most 50 µM; for `Cn1cc(-c2cnc3ccc4ccc(CS(=O)(=O)Nc5cccnc5)cc4c(=O)c3c2)cn1` [Compound 5-5, 1-[3-(1-methyl-1H-pyrazol-4-yl)-5-oxo-5H-benzo[4,5]cyclohepta[1,2-b]pyridin-7-yl]-N-pyridin-3-ylmethanesulfonamide] it is at most 50 µM; for `CC(c1ccc2ccc3ncc(-c4cnn(C)c4)cc3c(=O)c2c1)S(=O)(=O)N(C)c1ccccc1` (stereo not shown) [Compound 7-1, N-methyl-1-[3-(1-methyl-1H-pyrazol-4-yl)-5-oxo-5H-benzo[4,5]cyclohepta[1,2-b]pyridin-7-yl]-N-phenylethanesulfonamide] it is at most 50 µM.
